Experimental data reported in patent EP3643303A1, “COMPOUNDS FOR USE IN THE TREATMENT OR PREVENTION OF FIBROTIC DISEASES; PHARMACEUTICAL, COSMETIC COMPOSITIONS AND USES THEREOF” (InnovativeHealth Group SL, priority 2018, dated 2020).

Experiments:
α-SMA = α-SMA expression by Western blot in TGFβ-treated NIH-3T3 cells (myofibroblast differentiation); format: cell-based; conditions: 1 h preincubation, TGFβ 10 ng/ml 24 h; Figure 5
Procedure: It is well known that TGFβ drives the conversion of fibroblasts into myofibroblasts, and the accumulation of myofibroblasts cells in fibrotic skin is a hallmark of SSc. Myofibroblasts are characterized by the novo synthesis of α-smooth muscle actin (a-SMA) fibers. To investigate α-SMA expression NIH-3T3 cells were preincubated with either (+)CBD or (-)CBD for 1 h and then treated with TFGβ (10 ng/ml) for 24 h. Cells were washed with PBS and proteins extracted in 50 µl of lysis buffer (50 mM Tris-HCl pH 7.5, 150 mM NaCl, 10% glycerol and 1% NP-40) supplemented with 10mM NaF, 1 mM Na3VO4, 10 µg/ml leupeptine, 1 µg/ml pepstatin and aprotinin, and 1 µl/ml PMSF saturated. Protein concentration was determined by the Bradford assay (Bio-Rad, CA, USA) and 30 µg of proteins were boiled at 95 °C in Laemmli buffer and electrophoresed in 10% SDS/PAGE gels. Separated proteins were transferred to PVDF membranes (20V for 30 min) and blocked in TBS solution containing 0.1% Tween 20 and 5% non-fat dry milk for 1 hour at room temperature. Immunodetection of specific proteins was carried out by incubation with primary antibody against α-SMA (1:500; sc-32251, Santa Cruz). After washing membranes, horseradish peroxidase-conjugated secondary antibody was added and detected by chemiluminescence system (GE Healthcare Europe GmbH). […]

TRPV-1 = TRPV-1 (Homo sapiens, UniProt Q8NER1); conditions: Bisogno et al. 2001; cited from earlier work
CB2 = CB2 (Homo sapiens, UniProt P34972); conditions: Bisogno et al. 2001; cited from earlier work
mouse seizure model = conditions: Leite et al. 1982; cited from earlier work
anandamide hydrolysis = conditions: Bisogno et al. 2001; cited from earlier work
[1] = tested on: normal human dermal fibroblasts (NHDFs); assay: Collagen secretion (Sircol Soluble Collagen Assay) in TGFβ-stimulated NHDFs; format: cell-based; conditions: 1 h pre-treatment, TGFβ 24 h; Figure 4
Procedure: Next, NHDFs were used to correlate the effect of both isomers of CBD on Col1A2 transcriptional activity with collagen secretion. NHDFs were seeded in 24 well plates (5x10^4 cells/well), pre-treated with either (-)CBD or (+)CBD for 1 h and stimulated with TGFβ for the following 24 h. Collagen secretion was studied by collecting culture medium and measuring soluble collagen using the Sircol Soluble Collagen Assay (Biocolor, County Antrim, UK) following manufacturer's instructions.

NHDFs = assay: Fibroblast migration scratch (wound healing) assay in NHDFs; format: cell-based, human; conditions: Figure 6
Procedure: Migration of skin fibroblast plays a crucial role not only in normal wound healing but also in fibrotic diseases. To further analyze this point, it was tested if the anti-fibrotic effect of (-)CBD could be associated with reduced fibroblast migration. To investigate this possibility, the effect of (-)CBD on TGFβ-induced wound healing was investigated. NHDFs (2x10^3 cells) were seeded in complete DMEM in a 96-well Essen ImageLock plates (Essen BioScience). When cells reached confluence, wound scratches were made using the 96-pin WoundMaker (Essen BioScience). Then, culture medium was replaced by DMEM supplemented with 1% antibiotics and with mitomycin C (10 ng/ml) to block cell proliferation. (-)CBD and TGFβ1 10 ng/ml were added in parallel. Wound healing activity was analyzed using IncuCyte HD system by taking images every 3 h for 48 h and the percentage of wound confluence calculated with the IncuCyte software.

BLM-induced fibrosis = assay: Bleomycin (BLM) mouse model of skin fibrosis, histology and observation; format: in vivo, Mice
Procedure: The bleomycin (BLM) mice model is widely used to evaluate potential anti-inflammatory and anti-fibrotic therapies for SSc. BLM causes inflammation in a short period of time, characterized by elevation of proinflammatory cytokines and growth factors that peak around day 14 of BLM exposure. […] The inflammatory model of SSc was used to study (-)CBD preventive effects. Fibrosis was induced by daily subcutaneous administration of BLM (50 µg/mice; 100 µl) (Mylan, Barcelona, Spain) for 3 weeks. Treatments were administered in parallel and consisted of daily intraperitoneal (i.p.) injections of (-)CBD (20 mg/kg), or vehicle (4% DMSO, 6.2% Tween20, saline; 100 µl). Subcutaneous injections of 0.9% NaCl served as a control. Mice were acclimated to manipulators for a week previously to the experiments in order to reduce stress and allow the detection of subtle changes in behavior by researchers. […] Mice were sacrificed by cervical dislocation and the back skin was removed and processed for histological examination or was frozen for further analysis.
Mast cells degranulation as well as macrophages and lymphocyte accumulation are the hallmark of BLM-induced fibrosis and play important roles during the inflammatory phase of SSc. Mast cells degranulation can be identified by toluidine blue staining and macrophage accumulation by staining with a mAb that identifies F4/80^+ cells. Skin sections ([…]) were stained toluidine blue. For immunohistochemical detection of macrophages F4/80 (1:50; MCA497, Bio-Rad) antibody was used. Slides were developed with diaminobenzidine chromogen (Merck Millipore) and counterstained in Harris hematoxylin. Slides were photographed, digitalized using a Leica DFC420c camera and analyzed using Image J software.

[2] = BLM 3 weeks, 20 mg/kg i.p. daily, Figure 8

TRPV-1, sequence (Q8NER1 whole entry, species assumed): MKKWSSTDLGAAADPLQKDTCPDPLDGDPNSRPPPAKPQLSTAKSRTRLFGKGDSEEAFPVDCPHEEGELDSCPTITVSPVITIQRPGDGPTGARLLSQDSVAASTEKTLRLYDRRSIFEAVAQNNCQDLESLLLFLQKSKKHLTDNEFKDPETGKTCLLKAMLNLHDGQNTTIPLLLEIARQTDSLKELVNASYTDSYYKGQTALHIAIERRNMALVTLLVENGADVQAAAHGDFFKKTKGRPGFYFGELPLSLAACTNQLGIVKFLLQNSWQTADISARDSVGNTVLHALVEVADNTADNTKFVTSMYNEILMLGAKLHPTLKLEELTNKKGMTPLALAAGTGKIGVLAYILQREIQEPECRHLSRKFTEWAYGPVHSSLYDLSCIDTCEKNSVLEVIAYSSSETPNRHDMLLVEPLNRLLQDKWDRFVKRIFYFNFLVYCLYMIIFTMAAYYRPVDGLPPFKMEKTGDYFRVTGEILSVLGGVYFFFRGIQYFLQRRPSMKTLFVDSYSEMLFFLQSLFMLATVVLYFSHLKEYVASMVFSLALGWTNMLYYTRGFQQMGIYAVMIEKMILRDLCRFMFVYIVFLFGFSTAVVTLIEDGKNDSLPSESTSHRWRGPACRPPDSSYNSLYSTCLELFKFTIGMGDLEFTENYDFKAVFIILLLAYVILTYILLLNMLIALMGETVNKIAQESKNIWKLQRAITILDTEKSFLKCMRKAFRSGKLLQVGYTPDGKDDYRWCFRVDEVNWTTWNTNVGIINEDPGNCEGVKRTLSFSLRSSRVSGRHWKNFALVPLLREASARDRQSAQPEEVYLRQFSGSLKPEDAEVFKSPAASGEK
CB2, sequence (P34972 whole entry, species assumed): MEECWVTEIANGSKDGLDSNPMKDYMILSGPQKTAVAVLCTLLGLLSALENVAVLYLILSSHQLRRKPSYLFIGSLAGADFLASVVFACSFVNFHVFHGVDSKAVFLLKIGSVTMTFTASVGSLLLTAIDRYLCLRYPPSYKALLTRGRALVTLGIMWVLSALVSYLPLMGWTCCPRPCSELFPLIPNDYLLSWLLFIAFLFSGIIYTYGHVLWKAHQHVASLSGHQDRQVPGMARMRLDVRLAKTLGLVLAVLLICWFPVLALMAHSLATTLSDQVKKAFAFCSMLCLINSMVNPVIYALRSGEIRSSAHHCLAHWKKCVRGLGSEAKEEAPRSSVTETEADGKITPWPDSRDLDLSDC

Compound | expression α-SMA protein induced by TGFβ (α-SMA) | activity of the TRPV-1 (TRPV-1) | affinity at CB2 receptors (CB2) | anticonvulsant activity (mouse seizure model) | anandamide hydrolysis (anandamide hydrolysis) | TGFβ-induced collagen release and deposition [1] | wound closure induced by TGFβ1 (NHDFs; TGFβ1 10 ng/ml, 48 h, concentration-dependent) | wound closure induced by rhIL-4 (NHDFs; rhIL-4, concentration-dependent) | dermal thickness (BLM-induced fibrosis; [2]) | loss of adipose tissue layer induced by BLM (BLM-induced fibrosis; [2]) | piloerection, hunched appearances (BLM-induced fibrosis; during the experimental procedures, 20 mg/kg i.p. daily) | behavioral changes (BLM-induced fibrosis; during the protocols, 20 mg/kg i.p. daily) | Mice weight (BLM-induced fibrosis; evaluated weekly, between experimental groups, 20 mg/kg i.p. daily) | infiltration of F4/80^+ macrophages (BLM-induced fibrosis; immunostaining, versus BLM untreated mice, 20 mg/kg i.p., Figure 10) | number of degranulated mast cells in the lesioned skin (BLM-induced fibrosis; toluidine blue, BLM 3 weeks, 20 mg/kg i.p., Figure 9)
C=C(C)[C@H]1CCC(C)=C[C@@H]1c1c(O)cc(CCCCC)cc1O [(+)CBD, (+)Cannabidiol] | attenuated | modulated | has been shown to have affinity | more active than the (-)CBD isomer | inhibited | significantly inhibited | – | – | – | – | – | – | – | – | –
C=C(C)[C@@H]1CCC(C)=C[C@H]1c1c(O)cc(CCCCC)cc1O [(-)CBD, 2-[(1R,6R)-3-methyl-6-prop-1-en-2-ylcyclohex-2-en-1-yl]-5-pentylbenzene-1,3-diol] | attenuated | modulated | – | – | inhibited | significantly inhibited | significantly attenuated | significantly attenuated | attenuated | not were able to recover | Neither piloerection nor hunched appearances were appreciated | No behavioral changes | no significant changes | significantly reduced | prevented
